From ChEMBL document CHEMBL4270551, “Biological evaluation and structure-activity relationships of imidazole-based compounds as antiprotozoal agents” (Eur J Med Chem, 2018) come the findings set out here.

pIC50: −log10 of the molar value.

In series [1] the test system is Trypanosoma brucei rhodesiense. The series is described as follows: Antiprotozoal activity against Trypanosoma brucei rhodesiense STIB900 trypomastigote after 72 hrs by Alamar Blue assay. The format is functional, organism-based. The settings on record: STIB900, 72 h. (In general: The colour change of resazurin is a common sign of viable cells or microbes.)
The test system of series [2] is Trypanosoma cruzi. The series is described as follows: Antitrypanosomal activity against Trypanosoma cruzi Tulahuen strain C2C4 amastigote forms infected in rat L6 cells after 96 hrs by CPRG/Nonidet reagent based photometric method. The format is functional, organism-based. As to conditions: Tulahuen strain C2C4, L6, 96 h.
Series [3] relates to Leishmania donovani. The series is described as follows: Antileishmanial activity against Leishmania donovani MHOM/ET/67/L82 axenic amastigotes after 72 hrs by alamar blue staining based fluorescence assay. The format is functional, organism-based. The settings on record: MHOM/ET/67/L82, 72 h.
For series [4], the system named is Plasmodium falciparum. The series is described as follows: Antiprotozoal activity against erythrocytic stage of chloroquine and pyrimethamine resistant Plasmodium falciparum K1 assessed as reduction in [3H]-hypoxanthine incorporation preincubated for 24 hrs followed by [3H]-hypoxanthine addition measured after 24 hrs by scintillation counting method. Type of series: functional, organism-based.

Series [5] can be described thus: Cytotoxicity against rat L6 cells after 72 hrs by alamar blue staining based fluorescence assay. Type of series: cell-based.
The nature of series [6]: Selectivity index, ratio of CC50 for rat L6 cells to IC50 for Trypanosoma cruzi Tulahuen strain C2C4 amastigote forms infected in rat L6 cells. Type of series: toxicity, cell-based. As to conditions: read-out: Ratio CC50/IC50.
Series [7] can be described thus: Selectivity index, ratio of CC50 for rat L6 cells to IC50 for erythrocytic stage of chloroquine and pyrimethamine resistant Plasmodium falciparum K1. The format is toxicity. As to conditions: read-out: Ratio CC50/IC50.
Series [8] in a line: Selectivity index, ratio of CC50 for rat L6 cells to IC50 for Trypanosoma brucei rhodesiense STIB900 trypomastigote. The format is toxicity. As to conditions: read-out: Ratio CC50/IC50.
A short description of series [9]: Selectivity index, ratio of CC50 for rat L6 cells to IC50 for Leishmania donovani MHOM/ET/67/L82 axenic amastigotes. Type of series: toxicity. The settings on record: read-out: Ratio CC50/IC50.

The term pIC50 denotes −log10 of the IC50, conventionally taken in molar units. What is called CC50 is the concentration at which the toxic effect on the cells reaches its halfway point. High values mean lower toxicity to the cells, low ones greater toxicity to the cells.

Take `Clc1ccc(C(c2c[nH]cc2-c2ccc(-c3ccccc3)cc2)n2ccnc2)c(Cl)c1` (stereo not given): the pIC50 in [1] is 4.75; in series [2], 4.49; in series [3] it was 4.91; in series [4], less than 4.96. Further, in [5], the CC50 at 72 h is more than 202 µM.

As to `FC(F)(F)c1ccc(-c2c[nH]cc2C(c2ccc(Cl)cc2Cl)n2ccnc2)cc1` (stereo not given), the pIC50 in series [1] is 4.95; in [2], 7.30; in series [3] it was 4.92; in series [4], 6.85. In [5], this compound registered a CC50 at 72 h of 9.4 µM. For the same compound, the selectivity ratio in series [6] worked out at 188; in [7] it was 67.

With `c1ccc(C(c2ccn(-c3ccccc3)c2)n2ccnc2)cc1` (stereo not given), the pIC50 in [1] is 4.46; in series [2], 5.41; in [3], 4.84; in series [4], 5.38. The compound further returned a CC50 at 72 h in series [5] of 80.8 µM. Besides, the selectivity ratio turned out to be 2 in series [8], 21 in [6], 6 in [9] and 20 in [7].

Turning to `Clc1ccc(-c2c[nH]cc2C(c2ccc(Cl)cc2)n2ccnc2)cc1` (stereo not given), the pIC50 is 4.80 in series [1], 7.24 in series [2], 5.15 in series [3] and 6.89 in [4]. In series [5], this compound had a CC50 at 72 h of 4.83 µM. The selectivity ratio in series [6] is 85; in [9], 1; in series [7], 37.

On to `Clc1ccc(C(c2c[nH]cc2-c2cccc3ccccc23)n2ccnc2)c(Cl)c1` (stereo not given), for which the pIC50 in series [1] was 4.92; in series [2], 7.02; in series [3], 5.72; in [4], 6.48. In [5], this compound registered a CC50 at 72 h of 12.3 µM. The selectivity ratio came out at 1 in series [8], 128 in series [6], 6 in [9] and 37 in [7].

Consider `Cc1ccc(C(c2ccn(-c3ccc(Cl)cc3)c2)n2ccnc2)cc1` (stereo not given), for which the pIC50 in series [1] is 4.27; in [2], 5.76; in series [3] it was 4.90; in series [4], 5.60. Moreover, it took 42.6 µM to reach half-maximal cytotoxicity in [5] (CC50 at 72 h). The results for the selectivity ratio in [6], in series [9] and in [7] were 25, 3 and 17, respectively.

In the case of `O=[N+]([O-])c1ccc(-c2c[nH]cc2C(c2ccc(Cl)cc2Cl)n2ccnc2)cc1` (stereo not given), the pIC50 in series [1] is 5.25; in [2], 5.49; in series [3] it was 5.11; in series [4], 6.32. Besides, the CC50 at 72 h in series [5] came to 16.9 µM. The selectivity ratio in series [8] is 3; in series [6], 5; in series [9], 2; in series [7] it was 35.

With `CC(C)(C)c1ccc(-c2c[nH]cc2C(c2ccc(Cl)cc2Cl)n2ccnc2)cc1` (stereo not given), the pIC50 in series [1] is 4.38; in series [2] it was 4.89; in series [3] it was 5.16; in series [4], 6.42. Further, the CC50 at 72 h in [5] amounted to 22.9 µM. Besides, the selectivity ratio in series [6] is 2; in series [9], 3; in series [7] it was 60.

In series [3], `CCCCCCCCCCCCCCCCOP(=O)([O-])OCC[N+](C)(C)C` [MILTEFOSINE] showed a pIC50 of 6.25.

The compound `Nc1nc(N)nc(Nc2ccc([As]3SCC(CO)S3)cc2)n1` (stereo not given) [MELARSOPROL] showed a pIC50 in series [1] of 8.06.

Regarding `CSc1ccc(-c2c[nH]cc2C(c2ccc(Cl)cc2Cl)n2ccnc2)cc1` (stereo not given), the pIC50 in series [1] is 4.80; in [2], 7.37; in series [3], 5.29; in series [4], 6.62. In addition, half-maximal cytotoxicity in series [5] (CC50 at 72 h) was put at 7.22 µM. The selectivity ratio was 168 in [6], 1 in [9] and 30 in series [7].

Compound `O=C(Cn1ccnc1[N+](=O)[O-])NCc1ccccc1` [BENZNIDAZOLE] had a pIC50 in [2] of 5.78.

In series [5], `COc1cc([C@@H]2c3cc4c(cc3[C@H](O)[C@H]3COC(=O)[C@H]23)OCO4)cc(OC)c1OC` [PODOFILOX] yielded a CC50 at 72 h of 0.007 µM.
